Data on one compound can be found in patent US20230140838A9, “NOVEL ACTIVITY-BASED PROBES FOR NEUTROPHIL ELASTASE AND THEIR USE” (Takeda Pharmaceutical Company Limited, priority 2018, published 2023).

One experiment has as its target T1, neutrophil elastase (NE) (Homo sapiens, UniProt P08246).
T1 construct: purchased Elastin Products Company
T1 sequence (P08246 30-267): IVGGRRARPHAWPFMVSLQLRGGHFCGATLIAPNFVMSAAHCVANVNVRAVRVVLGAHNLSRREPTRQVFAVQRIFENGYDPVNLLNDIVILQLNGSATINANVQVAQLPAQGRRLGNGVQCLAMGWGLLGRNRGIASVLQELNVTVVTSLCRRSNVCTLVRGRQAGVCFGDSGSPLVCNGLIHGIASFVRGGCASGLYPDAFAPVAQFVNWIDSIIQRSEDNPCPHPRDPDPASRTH
Briefly: Recombinant protease labeling / fluorescent SDS-PAGE, neutrophil elastase. The format is binding. The following applies: 0.1-1 μM probe.

Experiment [1] deals with serine proteases in lysates prepared from mouse pancreas. Briefly: Ex vivo labeling of mouse pancreas lysates, in-gel fluorescence and immunoprecipitation. The format is binding. The protocol: (§1) Tubes were rocked overnight at 4° C.
The target in experiment [2] is T2, NE (Mus musculus, UniProt Q3UP87).
T2 sequence (Q3UP87 29-247 limits assumed): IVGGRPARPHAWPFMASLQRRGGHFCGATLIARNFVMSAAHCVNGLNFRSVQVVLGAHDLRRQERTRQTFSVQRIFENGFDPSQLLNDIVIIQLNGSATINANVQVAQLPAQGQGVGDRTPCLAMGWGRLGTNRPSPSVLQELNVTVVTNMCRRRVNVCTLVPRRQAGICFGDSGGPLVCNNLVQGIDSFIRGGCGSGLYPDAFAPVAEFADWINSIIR
The experiment is classed as binding.

In experiment [3] the test system is NE. The experiment in a line: Ex vivo labeling of human colon mucosal biopsy lysates (ulcerative colitis vs healthy). The experiment is classed as binding. The procedure: as §1
Human mucosal biopsies were obtained from individuals during colonoscopy procedures at Hotel Dieu Hospital in Kingston, Ontario, Canada (Table 1). Patients were well-characterized individuals with active ulcerative colitis (UC) or healthy individuals undergoing routine colonoscopy for cancer screening. For UC patients, biopsies were obtained from sites of active inflammation. Written and verbal consent was obtained prior to enrolment and all protocols were approved by the Queen's University Human Ethics Committee. Fresh biopsies were washed in PBS and then snap frozen for protease analysis as above.

The target of experiment [4] is T2, NE. The experiment is classed as binding. This is another data set of the same source.
The subject of experiment [5] is NE.
Method: PK105b or Cy5-V-DPP (0, 0.1, 0.5 or 1 μM) was added from a 100×DMSO stock, and reaction was left to occur at 37° C. for 30 minutes. Proteins were solubilized in 4× sample buffer (40% glycerol, 200 mM Tris-Cl [pH 6.8], 8% SDS, 0.04% bromophenol blue, 5% beta-mercaptoethanol), boiled for five minutes and resolved on a 15% SDS-PAGE gel. Probe labeling was detected by scanning the gel for Cy5 fluorescence on a Typhoon 5 flatbed laser scanner (GE Healthcare).
Bone marrow was obtained by flushing tibias and femurs from healthy C57BL/6J mice with PBS. Cells were washed and resuspended in PBS prior to sonication on ice. […] Total protein (60 μg, as measured by BCA assay, Pierce) was aliquoted in a total volume of 20 μl PBS, and probe labeling and SDS-PAGE was carried out as above.
Fluorescent Gels were Transferred to Nitrocellulose Membranes and Blotted Using the Turbo Blot system (BioRad). […] Binding was detected by scanning with the IRLong filter on a Typhoon 5 flatbed laser scanner (GE Healthcare).
PK105b-labeled lysates (boiled in sample buffer for five minutes) were divided into input and immunoprecipitation (IP) samples (100 μg each). […] Supernatants were then analyzed, alongside the input sample, by fluorescent SDS-PAGE as above. […]

SMILES strings stand for the structures.

Consider `CCC(NC(=O)[C@@H]1CC2CCCCC2N1C(=O)[C@H](CCS(C)(=O)=O)NC(=O)[C@H](CCCCOCc1ccccc1)NC(=O)CCCCCN1/C(=C/C=C/C=C/C2=[N+](CC)c3ccc(S(=O)(=O)[O-])cc3C2(C)C)C(C)(C)c2cc(S(=O)(=O)O)ccc21)P(=O)(Oc1ccccc1)Oc1ccccc1` (stereo partly shown) [PK105b], for which the “potency of NE labeling compared between probes” value at neutrophil elastase (NE) is reported as “more potent than Cy5-V-DPP”. The “labeling of 25-KDa proteins in mouse pancreas lysates (in-gel fluorescence)” value in experiment [1] (0.1, 0.5 and 1 µM) is listed as “strongly labeled”. The “targets of the probe identified by immunoprecipitation” value in experiment [1] (labeled mouse pancreas lysates, antibodies to NE, PE, Try3) was “combination of NE, pancreatic elastase (PE), and trypsin 3”. Besides, at NE [2], the “ability to detect NE activity in tissue lysates compared between probes” value is recorded as “clearly superior to Cy5-V-DPP”; the “binding to other species (off-target bands)” value is listed as “binding to several species in the 50-75-KDa range”; the “identity of the labeled band by immunoprecipitation with NE-specific antibody” value is “confirmed to be NE”; the “labeling of the 25-KDa band in healthy distal colons and proximal regions of healthy and inflamed colons” value is listed as “virtually absent”. In addition, at NE [2], the “labeling of the 25-KDa species in distal colon lysates of TNBS-treated mice” value was “clear labeling of a single protein at 25-KDa” and the “species of the 25-KDa NE doublet labeled by the probe” value is “Only the lower species”. For the same compound, the “identity of labeled bands by immunoprecipitation with NE-specific antibody” value with NE [3] (UC biopsy lysates) is “confirmed to be NE”. The “labeling in active ulcerative colitis biopsies compared with healthy individuals” value in the experiment on NE [3] (human colon mucosal biopsies, UC n=9, normal n=5) was “significant increase in labeling”. Also, the “number of species labeled in human mucosal lysates” value in the experiment on NE [3] (in-gel fluorescence) is listed as “three species were labeled”. In addition, at NE [4], the “identity of the major 25-KDa species by immunoblotting and immunoprecipitation” value was “confirmed to be NE”; the “labeling in infected lung tissue lysates compared with control lungs” value is given as “significantly increased”. In addition, the “labeling in tumor tissues versus normal tongue tissues” value in the experiment with NE [5] (HSC-3 xenograft, two weeks) is “clear labeling of a 25-KDa species in tumor tissues, but not normal tongue tissues”. The “labeling of other high-molecular weight species in tumor/tongue lysates” value in the experiment on NE [5] (unidentified species) was “abundantly labeled”.
